# Measurements from US4225526A, “8-[(4-Aminophenyl)sulfonyl]amino-2-naphthalenyl phosphorodiamidate” (Morton-Norwich Products, Inc., priority 1979, dated 1980).
# Molecular target: T1, urease of intact Proteus mirabilis cells (Proteus mirabilis, UniProt P17086)
# T1 construct: using intact Proteus mirabilis cells as the source of urease; endogenous in cells; host or cells: intact Proteus mirabilis cells
# Test: anti-urease potency using intact Proteus mirabilis cells
# Type: cell-based
# Conditions: 40 minutes preincubation, pH 8.0; ammonia formed in five minutes after addition of urea; read-out: concentration evincing 50% inhibition of the urease of intact Proteus mirabilis cells
# Description: The anti-urease potency of the compound of this invention was determined using intact Proteus mirabilis cells as the source of urease. Compounds were preincubated with Proteus mirabilis cells suspended in a saline solution (0.1 molar) buffered with 0.1 molar tris(hydroxymethyl)aminomethane (pH 8.0). After 40 minutes preincubation, the remaining urease activity was determined by collecting the ammonia formed in five minutes after the addition of the substrate, urea. Ammonia assays were carried out according to the procedure of Seligson and Seligson [J. Lab. Clin. Med. 38, 324-330 (1951)]. Percent inhibition was calculated by comparing the amount of ammonia generated by cells preincubated with 8-[(4-aminophenyl)sulfonyl]amino-2-naphthalenyl phosphorodiamidate with the controls in which preincubation was carried out in the absence of compound.
# T1 sequence (P17088 whole entry): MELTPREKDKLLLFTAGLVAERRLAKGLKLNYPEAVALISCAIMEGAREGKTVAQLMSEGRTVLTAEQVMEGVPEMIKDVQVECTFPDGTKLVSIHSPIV
# T1 sequence (P17087 whole entry, further chain): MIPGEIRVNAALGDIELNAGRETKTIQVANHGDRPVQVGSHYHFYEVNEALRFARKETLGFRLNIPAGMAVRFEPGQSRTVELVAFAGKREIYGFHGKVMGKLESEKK
# T1 sequence (P17086 whole entry): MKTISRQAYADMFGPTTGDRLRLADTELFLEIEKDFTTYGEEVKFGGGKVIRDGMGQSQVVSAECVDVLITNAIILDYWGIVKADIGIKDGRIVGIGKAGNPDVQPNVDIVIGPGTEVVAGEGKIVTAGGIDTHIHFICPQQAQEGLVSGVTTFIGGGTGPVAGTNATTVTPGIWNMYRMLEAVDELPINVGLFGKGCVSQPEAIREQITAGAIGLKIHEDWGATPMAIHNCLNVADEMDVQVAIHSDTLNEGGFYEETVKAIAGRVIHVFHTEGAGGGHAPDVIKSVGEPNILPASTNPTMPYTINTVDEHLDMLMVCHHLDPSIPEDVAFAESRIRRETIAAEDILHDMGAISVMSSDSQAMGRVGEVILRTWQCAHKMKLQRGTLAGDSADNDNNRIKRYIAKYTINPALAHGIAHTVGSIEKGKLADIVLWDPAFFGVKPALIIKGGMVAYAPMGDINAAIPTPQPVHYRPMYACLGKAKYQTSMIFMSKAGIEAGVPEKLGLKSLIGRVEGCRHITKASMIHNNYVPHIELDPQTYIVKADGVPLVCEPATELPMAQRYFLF
compound,measurement,value
"Nc1ccc(S(=O)(=O)Nc2cccc3ccc(OP(N)(N)=O)cc23)cc1 [this compound, 8-[(4-aminophenyl)sulfonyl]amino-2-naphthalenyl phosphorodiamidate]",IC50,0.4 µM
